# Measurements taken from patent publication US20100178362A1, “CHROMIUM COMPLEXES FOR IMPROVEMENT OF MEMORY AND COGNITIVE FUNCTION” (priority 2007, published 2010).
# Like-named read-outs stand apart in the source and are kept apart here.
# Tests used:
# rats = settings: cited from earlier work
# [1] = tested on: spatial learning and memory; assay: Morris Water Maze test of spatial learning and memory; format: in vivo, male Wistar rats; settings: for Improvement of spatial learning and/or memory: control animals and insulin-resistant animals; for Escape latency compared to controls: treatment for twelve weeks
# Excerpt: 8-week old, male, Wistar rats were divided into eight groups: four control groups (C) and four insulin-resistant groups (HFD). Insulin resistance was induced in by feeding the rats a high-fat diet (40% of calories as fat). The four groups in the control and insulin-resistant groups included: a no treatment group, a 14.3 mcg chromium picolinate group (CrPic), a 19.7 mcg chromium histidinate group (CrHis), and a 7.15 chromium picolinate and 9.85 chromium histidinate group (CrPic+CrHis). Four rats were assigned to each of the eight groups. Treatments were administered for twelve weeks.
# Spatial learning and memory were then tested using the Morris Water Maze test. Rats were placed in a circular water tank (120 cm diameter, 50 cm height) that was partially filled with water (25° C.). Milk powder was used to render the water opaque. Each rat was acclimated to the task with two days of free-swimming in the pool with no platform. […] Distal spatial cues were provided and kept constant throughout the testing, such that the rats could use the cues to find the platform. Rats were given 60 seconds to find the platform during each trial. The escape latency was defined as the time required for the rat to find a hidden platform.
# A probe trial was performed in which the hidden platform was removed from the pool, and the animal was allowed to swim for 60 seconds. Typically, a rat will swim in a quadrant of the pool where the platform was previously hidden.
# memory function = assay: California Verbal Learning Test in trial subjects with Mild Cognitive Impairment; format: in vivo, men and women
# Description: (§1) A randomized, double blind, placebo-controlled trial is conducted to evaluate the efficacy of chromium picolinate in producing enhancements of neuropsychological function in men and women with Mild Cognitive Impairment. Changes in indices of glucose metabolism and in salivary cortisol levels also are measured to gather exploratory information concerning potential mechanisms by which the intervention produces its effects. The subjects participate in a 12-week protocol with major assessments of neuropsychological and biological measures at pre-treatment baseline and during the final week of the intervention. In addition, a brief interim evaluation of neurocognitive function is conducted at 6 weeks to gather information that to assess trends and acute response. Mood, as a potential covariate of the neurobehavioral outcome measures, is also assessed. Overall diet and consumption of other supplements are assessed with diet diaries at different phases of the intervention. Compliance and adverse responses are monitored throughout the period of the intervention by means of weekly telephone contacts.
# California Verbal Learning Test: The California Verbal Learning Test (CVLT) is among the best designed of a number of list learning procedures used to assess memory consolidation ability. It provides data on learning rate or efficiency, interference effects, recall, and recognition memory. Reliability and validity data are adequate and well established. Our data with a middle-aged sample indicated a trend for recall and recognition memory effects on this procedure.
# (§2) Chromium picolinate: The chromium supplement is provided by Nutrition21, Purchase, N.Y., a major distributor of the chromium picolinate supplement form. A single capsule 1000 mcg dose is administered to subjects receiving the chromium treatment with the morning meal each day for the duration of the intervention. Similar appearing placebo capsules are administered in a similar manner to subjects receiving the placebo treatment.
# [2] = Placebo-controlled trial in Mild Cognitive Impairment: chromium to creatinine ratio; format: in vivo, men and women
# Description: as §1
# (§3) Chromium picolinate: The chromium supplement is provided by Nutrition21, Purchase, N.Y., a major distributor of the chromium picolinate supplement form. […]
# cerebral activation = assay: fMRI during working memory (visual-spatial n-back) task in trial subjects with Mild Cognitive Impairment; format: in vivo, men and women
# Description: as §1, §2
# A neuropsychological protocol is administered and fMRI scans are obtained before and after treatments using a Varian INOVA 4 Tesla scanner. Two runs of BOLD EPI, 30 contiguous 5 mm coronal slices are acquired. Images are obtained while subjects performed the NIH visual-spatial n-back task with 0- and 1-back blocks. There are 20, 1.5 s trials per block; each block repeated 6 times. Image analyses are performed using AFNI and included co-registration, motion correction, blur, normalization, and event-related analysis. […]
# HFD/STZ-treated rats = assay: Rat model of type 2 diabetes (high-fat diet + streptozotocin): chromium, carbohydrate metabolism and serotonergic properties; format: in vivo, male Sprague-Dawley rats; parameters: Cortisol: unit not given here
# Description: An animal model of type 2 diabetes was produced by feeding male Sprague-Dawley rats (n=33) with a high-fat diet (HFD, 40% Kcal from fat) for 2 weeks, then intraperitoneally administering streptozotocin (STZ, 40 mg/kg). The HFD/STZ-treated rats were then administered 80 mcg chromium picolinate/kg body weight/day for 10 weeks. Chromium picolinate was obtained from Nutrition 21, Purchase, N.Y. Untreated Sprague-Dawley (standard control diet) and HFD/STZ-treated rats not administered chromium picolinate served as controls.
# Chromium picolinate administration to HFD/STZ treated rats increased brain chromium levels and improved all measurements or carbohydrate metabolism and serotonergic properties.
# motor speed = assay: Trail-Making task in trial subjects with Mild Cognitive Impairment; format: in vivo, men and women
# Description: as §1, §3
# [3] = control rats (C), FIGS. 1A and 1C
# [4] = Study 1: 1000 mcg elemental chromium daily, 12 weeks, v placebo, effect size moderate
# [5] = as printed under Results - Study 2
# [6] = 80 mcg chromium picolinate/kg body weight/day for 10 weeks, mean ± SD
# [7] = 80 mcg/kg body weight/day for 10 weeks
compound,measurement,setting,value
[Cl][Cr]([Cl])[Cl] [chromium chloride],Toxic effects,"rats; rats, levels several thousand times the upper limit of the human ESADDI for chromium (based on body weight)",without toxic effects
chromium histidinate,Improvement of spatial learning and/or memory,[1],effective in improving spatial learning and/or memory
same,Escape latency compared to controls,[1]; [3],significantly shorter escape latencies on day 3
same,Escape latency compared to controls,"[1]; insulin-resistant rats (HFD), FIGS. 1B and 1D",significantly shorter escape latencies on days 3 and 5
chromium picolinate,Improvement of spatial learning and/or memory,[1],effective in improving spatial learning and/or memory
same,Escape latency compared to controls,[1]; [3],significantly shorter escape latencies on day 3
same,Accuracy of memory on the California Verbal Learning Test,"memory function; Study 1: 1000 mcg elemental chromium daily, 12 weeks, v placebo",No group differences
same,Semantic interference (free recall intrusions),memory function; [4],trend for reduced semantic interference
same,Intrusion errors on the California Verbal Learning Test,"memory function; Study 2: administered outside the scanner, relative to the placebo group",reduced intrusion errors
same,Accuracy of memory on the California Verbal Learning Test,memory function; [5],No group differences
same,Semantic interference,memory function; [5],trend for reduced semantic interference
same,Chromium to creatinine ratios at treatment termination,"[2]; Study 1: 1000 mcg elemental chromium daily for 12 weeks (n=11) v placebo (n=10), F=8.85, p=0.008",significantly elevated
same,Chromium to creatinine ratios at treatment termination,"[2]; Study 2: 1000 mcg elemental chromium daily for 12 weeks (n=9) v placebo (n=4), F=8.86, p<0.0001",elevated
same,Toxic effects,"rats; rat, in vivo",without toxic effects
same,"fMRI activation pattern, pre- v post-intervention scans","cerebral activation; Study 1: individual subjects, increasing working memory load",increasing activation in left frontal and left parietal cortices
same,Performance on the working memory task,"cerebral activation; Study 2: n-back task in the scanner, v placebo",not reflected in differential performance
same,fMRI activation relative to placebo treated subjects,"cerebral activation; Study 2: right thalamic, right temporal, right posterior parietal and bilateral frontal regions, p=0.005 corrected",greater activation
same,CISI (insulin sensitivity),HFD/STZ-treated rats; [6],1.3 ± 0.04
same,Chromium - Brain,HFD/STZ-treated rats; [6],22.6 ± 1.2 ng/g
same,Cortisol,HFD/STZ-treated rats; [6],11.5 ± 0.4
same,Glucose,HFD/STZ-treated rats; [6],287.0 ± 2.7 mg/dL
same,Insulin Brain,HFD/STZ-treated rats; [6],8.9 ± 2.0 ng/g
same,Insulin Serum,HFD/STZ-treated rats; [6],25.9 ± 0.5 uU/mL
same,Melatonin,HFD/STZ-treated rats; [6],16.3 ± 0.2 µg/g
same,Serotonin Brain,HFD/STZ-treated rats; [6],520.3 ± 4.1 µg/g
same,Serotonin Serum,HFD/STZ-treated rats; [6],174.9 ± 2.5 mg/dL
same,Tryptophan Brain,HFD/STZ-treated rats; [6],5.5 ± 0.2 µg/g
same,Tryptophan Serum,HFD/STZ-treated rats; [6],16.1 ± 0.3 mg/dL
same,Insulin resistance compared to the HFD/STZ group,HFD/STZ-treated rats; [7],reduced
same,Tolerability / adverse events,HFD/STZ-treated rats; [7],well tolerated without any adverse events
same,Motor speed on the Trail-Making task,motor speed; [4],trend for enhanced motor speed
same,Motor speed,"motor speed; as printed under Results - Study 2, sentence breaks off",trend for enhanced motor
